In the test the target is T1, Interleukin-23 receptor (Homo sapiens, UniProt Q5VWK5).
T1 sequence (Q5VWK5 whole entry): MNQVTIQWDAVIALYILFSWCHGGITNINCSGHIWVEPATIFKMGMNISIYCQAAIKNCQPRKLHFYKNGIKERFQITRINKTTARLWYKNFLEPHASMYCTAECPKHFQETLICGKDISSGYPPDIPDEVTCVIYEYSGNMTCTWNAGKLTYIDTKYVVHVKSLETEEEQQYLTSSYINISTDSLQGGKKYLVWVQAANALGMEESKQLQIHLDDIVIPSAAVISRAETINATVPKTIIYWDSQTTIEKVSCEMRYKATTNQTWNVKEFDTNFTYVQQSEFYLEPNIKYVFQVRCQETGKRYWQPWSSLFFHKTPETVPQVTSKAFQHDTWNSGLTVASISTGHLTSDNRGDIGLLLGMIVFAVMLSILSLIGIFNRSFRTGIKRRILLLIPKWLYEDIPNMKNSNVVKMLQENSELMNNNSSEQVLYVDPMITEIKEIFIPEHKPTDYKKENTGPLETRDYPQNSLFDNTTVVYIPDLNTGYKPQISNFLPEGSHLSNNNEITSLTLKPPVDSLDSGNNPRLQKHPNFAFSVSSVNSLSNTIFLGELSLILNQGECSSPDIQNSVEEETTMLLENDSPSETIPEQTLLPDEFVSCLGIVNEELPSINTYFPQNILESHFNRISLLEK
Nature of the test: Inhibition of interleukin-23 receptor in human DB cells assessed as reduction in IL-23-stimulated STAT3 phosphorylation incubated for 30 mins by HTRF assay. Format: cell-based.

Where a SMILES comes first, the peptide text is derived from it. [ ]: non-standard residue; d: D form. 2Nal = N[C@@H](Cc1ccc2ccccc2c1)C(=O)O; AEF = NCCOc1ccc(C[C@H](N)C(=O)O)cc1; Pen = CC(C)(S)[C@H](N)C(=O)O; Aib = CC(C)(N)C(=O)O

In the case of `CC(=O)NCCCC[C@H](NC(=O)C(C)(C)NC(=O)[C@H](Cc1ccc2ccccc2c1)NC(=O)[C@H](Cc1ccc(OCCN)cc1)NC(=O)[C@@H](NC(=O)[C@H](CCC(N)=O)NC(=O)[C@H](Cc1c[nH]c2ccccc12)NC(=O)[C@@H](NC(=O)[C@H](CCC(N)=O)NC(=O)[C@@H](NC(=O)[C@@H](CC(=O)O)NC(C)=O)C(C)(C)S)[C@@H](C)O)C(C)(C)S)C(=O)N[C@@H](CC(N)=O)C(=O)N[C@@H](CC(N)=O)C(N)=O`, the 50% inhibitory concentration (IC50) is < 10 nM. Under `COc1ccc(C[C@H](NC(=O)[C@@H](NC(=O)[C@H](CCC(N)=O)NC(=O)[C@H](Cc2c[nH]c3ccccc23)NC(=O)[C@@H](NC(=O)[C@H](CCC(N)=O)NC(=O)[C@@H](NC(C)=O)C(C)(C)S)[C@@H](C)O)C(C)(C)S)C(=O)N[C@@H](Cc2ccc3ccccc3c2)C(=O)NC(C)(C)C(=O)N[C@@H](CCCCNC(C)=O)C(=O)N[C@@H](CC(N)=O)C(=O)N[C@@H](CCC(N)=O)C(N)=O)cc1` stands < 10 nM. In the case of `CC(=O)NCCCC[C@H](NC(=O)C(C)(C)NC(=O)[C@H](Cc1ccc2ccccc2c1)NC(=O)[C@H](Cc1ccc(OCCN)cc1)NC(=O)[C@@H](NC(=O)[C@H](CCC(N)=O)NC(=O)[C@H](Cc1c[nH]c2ccccc12)NC(=O)[C@@H](NC(=O)[C@H](CCC(N)=O)NC(=O)[C@@H](NC(=O)[C@@H](Cc1ccccc1)NC(C)=O)C(C)(C)S)[C@@H](C)O)C(C)(C)S)C(=O)N[C@@H](CC(N)=O)C(=O)N[C@@H](CC(N)=O)C(N)=O` it was < 10 nM; in that of `CC(=O)NCCCC[C@H](NC(=O)C(C)(C)NC(=O)[C@H](Cc1ccc2ccccc2c1)NC(=O)[C@H](Cc1ccc(OCCN)cc1)NC(=O)[C@@H](NC(=O)[C@H](CCC(N)=O)NC(=O)[C@H](Cc1c[nH]c2ccccc12)NC(=O)[C@@H](NC(=O)[C@H](CCC(N)=O)NC(=O)[C@@H](NC(=O)[C@@H](CCCNC(=N)N)NC(C)=O)C(C)(C)S)[C@@H](C)O)C(C)(C)S)C(=O)N[C@@H](CC(N)=O)C(=O)N[C@@H](CC(N)=O)C(N)=O`, < 10 nM.

Turning to `COc1ccc(C[C@H](NC(=O)[C@@H](NC(=O)[C@H](CCC(N)=O)NC(=O)[C@H](Cc2c[nH]c3ccccc23)NC(=O)[C@@H](NC(=O)[C@H](CCC(N)=O)NC(=O)[C@@H](NC(C)=O)C(C)(C)S)[C@@H](C)O)C(C)(C)S)C(=O)N[C@@H](Cc2ccc3ccccc3c2)C(=O)NC(C)(C)C(=O)N[C@@H](CCCCNC(C)=O)C(=O)N[C@@H](CC(N)=O)C(=O)NCCC(N)=O)cc1`, the IC50 is < 10 nM.

Take `CC(=O)NCCCC[C@H](NC(=O)C(C)(C)NC(=O)[C@H](Cc1ccc2ccccc2c1)NC(=O)[C@H](Cc1ccc(OCCN)cc1)NC(=O)[C@@H](NC(=O)[C@H](CCC(N)=O)NC(=O)[C@H](Cc1c[nH]c2ccccc12)NC(=O)[C@@H](NC(=O)[C@@H](NC(=O)[C@@H](NC(C)=O)C(C)(C)S)[C@@H](C)O)[C@@H](C)O)C(C)(C)S)C(=O)N[C@@H](CC(N)=O)C(=O)N[C@@H](CCC(N)=O)C(N)=O`: the IC50 was < 10 nM. In the case of `CC(=O)NCCCC[C@H](NC(=O)C(C)(C)NC(=O)[C@H](Cc1ccc2ccccc2c1)NC(=O)[C@H](Cc1ccc(OCCN)cc1)NC(=O)[C@@H](NC(=O)[C@H](CCC(N)=O)NC(=O)[C@H](Cc1c[nH]c2ccccc12)NC(=O)[C@@H](NC(=O)[C@H](CCC(N)=O)NC(=O)[C@@H](NC(=O)[C@H](Cc1ccc2ccccc2c1)NC(C)=O)C(C)(C)S)[C@@H](C)O)C(C)(C)S)C(=O)N[C@@H](CC(N)=O)C(=O)N[C@@H](CC(N)=O)C(N)=O` it was < 10 nM. As to `CC(=O)N[C@H]1CCSC[C@@H](C(=O)N[C@@H](Cc2ccc(OCCN)cc2)C(=O)N[C@@H](Cc2c[nH]c3ccc(O)cc23)C(=O)NC(C)(C)C(=O)N[C@@H](CCC(N)=O)C(=O)N[C@@H](CC(N)=O)C(=O)NCC(N)=O)NC(=O)[C@H](CCC(N)=O)NC(=O)[C@H](Cc2c[nH]c3ccccc23)NC(=O)[C@H]([C@@H](C)O)NC(=O)[C@H](CCC(N)=O)NC1=O`, the IC50 was 10 to 25 nM. In the case of `COc1ccc(C[C@H](NC(=O)[C@@H](NC(=O)[C@H](CCC(N)=O)NC(=O)[C@H](Cc2c[nH]c3ccccc23)NC(=O)[C@@H](NC(=O)[C@H](CC(N)=O)NC(=O)[C@@H](NC(C)=O)C(C)(C)S)[C@@H](C)O)C(C)(C)S)C(=O)N[C@@H](Cc2ccc3ccccc3c2)C(=O)NC(C)(C)C(=O)N[C@@H](CCCCNC(C)=O)C(=O)N[C@@H](CC(N)=O)C(=O)N[C@@H](C)C(N)=O)cc1` it was < 10 nM; in that of `CC(=O)NCCCC[C@H](NC(=O)[C@H](CCC(C)C)NC(=O)[C@H](Cc1ccc2ccccc2c1)NC(=O)[C@H](Cc1ccc(OCCN)cc1)NC(=O)[C@@H](NC(=O)[C@H](CCC(N)=O)NC(=O)[C@H](Cc1c[nH]c2ccccc12)NC(=O)[C@@H](NC(=O)[C@H](CCC(N)=O)NC(=O)[C@@H](NC(C)=O)C(C)(C)S)[C@@H](C)O)C(C)(C)S)C(=O)N[C@@H](CC(N)=O)C(=O)NCCC(N)=O`, < 10 nM. For the compound `CC(=O)NCCOc1ccc(C[C@H](NC(=O)[C@@H](NC(=O)[C@H](CCC(N)=O)NC(=O)[C@H](Cc2c[nH]c3ccccc23)NC(=O)[C@@H](NC(=O)[C@H](CCC(N)=O)NC(=O)[C@@H](NC(C)=O)C(C)(C)S)[C@@H](C)O)C(C)(C)S)C(=O)N[C@@H](Cc2ccc3ccccc3c2)C(=O)N[C@](C)(C(=O)N[C@@H](CCCCN)C(=O)N[C@@H](CC(N)=O)C(=O)N[C@@H](CC(N)=O)C(N)=O)C(C)C)cc1`, the IC50 is < 10 nM. For `CC(=O)NCCCC[C@H](NC(=O)C(C)(C)NC(=O)[C@H](Cc1ccc2ccccc2c1)NC(=O)[C@H](Cc1ccc(OCCN)cc1)NC(=O)[C@@H](NC(=O)[C@H](CCC(N)=O)NC(=O)[C@H](Cc1c[nH]c2ccccc12)NC(=O)[C@@H](NC(=O)[C@H](CCC(N)=O)NC(=O)[C@@H](NC(=O)[C@@H](NC(C)=O)[C@@H](C)O)C(C)(C)S)[C@@H](C)O)C(C)(C)S)C(=O)N[C@@H](CC(N)=O)C(=O)N[C@@H](CC(N)=O)C(N)=O` (Ac-T[Pen]QTWQ[Pen][AEF][2Nal][Aib]K(Ac)NN-NH2), the 50% inhibitory concentration (IC50) was < 10 nM.

Take `COc1ccc(C[C@H](NC(=O)[C@@H](NC(=O)[C@H](CCC(N)=O)NC(=O)[C@H](Cc2c[nH]c3ccccc23)NC(=O)[C@@H](NC(=O)[C@H](CCC(N)=O)NC(=O)[C@@H](NC(C)=O)C(C)(C)S)[C@@H](C)O)C(C)(C)S)C(=O)N[C@@H](Cc2ccc3ccccc3c2)C(=O)N[C@@H](CCC(C)C)C(=O)N[C@@H](CCCCNC(C)=O)C(=O)N[C@@H](CC(N)=O)C(=O)NCCC(N)=O)cc1`: the half-inhibitory concentration (IC50) was < 10 nM. In the case of `COc1ccc(C[C@H](NC(=O)[C@@H](NC(=O)[C@H](CCC(N)=O)NC(=O)[C@H](Cc2c[nH]c3ccccc23)NC(=O)[C@@H](NC(=O)[C@H](CCC(N)=O)NC(=O)[C@@H](NC(C)=O)C(C)(C)S)[C@@H](C)O)C(C)(C)S)C(=O)N[C@@H](Cc2ccc3ccccc3c2)C(=O)N[C@](C)(C(=O)N[C@@H](CCCCNC(C)=O)C(=O)N[C@@H](CC(N)=O)C(=O)N[C@@H](CC(N)=O)C(=O)N[C@@H](N)CCCCN)C(C)C)cc1` it was < 10 nM; in that of `CC(=O)NCCCC[C@H](NC(=O)C(C)(C)NC(=O)[C@H](Cc1ccc2ccccc2c1)NC(=O)[C@H](Cc1ccc(OCCN)cc1)NC(=O)[C@@H](NC(=O)[C@H](CCC(N)=O)NC(=O)[C@H](Cc1c[nH]c2ccccc12)NC(=O)[C@@H](NC(=O)[C@H](CCC(N)=O)NC(=O)[C@@H](NC(C)=O)C(C)(C)S)[C@@H](C)O)C(C)(C)S)C(=O)N[C@@H](CC(N)=O)C(=O)N[C@@H](C)C(N)=O`, < 10 nM. Take `CC(=O)NCCCC[C@H](NC(=O)C(C)(C)NC(=O)[C@H](Cc1ccc2ccccc2c1)NC(=O)[C@H](Cc1ccc(OCCN)cc1)NC(=O)[C@@H](NC(=O)[C@H](CCC(N)=O)NC(=O)[C@H](Cc1c[nH]c2ccccc12)NC(=O)[C@@H](NC(=O)[C@H](CCC(N)=O)NC(=O)[C@@H](NC(=O)[C@H](CC(C)C)NC(C)=O)C(C)(C)S)[C@@H](C)O)C(C)(C)S)C(=O)N[C@@H](CC(N)=O)C(=O)N[C@@H](CC(N)=O)C(N)=O` (Ac-L[Pen]QTWQ[Pen][AEF][2Nal][Aib]K(Ac)NN-NH2): the IC50 was < 10 nM. Turning to `CCCCCCCC[C@H](NC(=O)[C@H](Cc1c[nH]c2ccccc12)NC(=O)[C@H](Cc1ccc(O)cc1)NC(=O)[C@H](CS)NC(=O)[C@H](CCC(N)=O)NC(=O)[C@H](Cc1c[nH]c2ccccc12)NC(=O)[C@@H](NC(=O)[C@H](CCC(N)=O)NC(=O)[C@H](CS)NC(C)=O)[C@@H](C)O)C(=O)N[C@@H](CCC(=O)O)C(=O)N[C@@H](CC(N)=O)C(=O)NCC(N)=O`, the IC50 is 76 nM. Under `CC(=O)NCCCC[C@H](NC(=O)[C@@](C)(NC(=O)[C@H](Cc1ccc2ccccc2c1)NC(=O)[C@H](Cc1ccc(C(N)=O)cc1)NC(=O)[C@@H](NC(=O)[C@H](CCC(N)=O)NC(=O)[C@H](Cc1c[nH]c2ccccc12)NC(=O)[C@@H](NC(=O)[C@H](CCC(N)=O)NC(=O)[C@@H](NC(=O)[C@@H](CCCCN)NC(C)=O)C(C)(C)S)[C@@H](C)O)C(C)(C)S)C(C)C)C(=O)N[C@@H](CC(N)=O)C(=O)N[C@@H](CC(N)=O)C(N)=O` stands 1000 to 10000 nM. In the case of `CC(=O)NCCCC[C@H](NC(=O)[C@](C)(CCCCN)NC(=O)[C@H](Cc1ccc2ccccc2c1)NC(=O)[C@H](Cc1ccc(OCCN)cc1)NC(=O)[C@@H]1CSCC[C@H](NC(C)=O)C(=O)N[C@@H](CCC(N)=O)C(=O)N[C@@H]([C@@H](C)O)C(=O)N[C@@H](Cc2c[nH]c3ccccc23)C(=O)N[C@@H](CCC(N)=O)C(=O)N1)C(=O)N[C@@H](CC(=O)NCCCCN)C(=O)NCC(N)=O` it was 25 to 100 nM.

(Values after ChEMBL document CHEMBL4417631, “Oral peptide inhibitors of interleukin-23 receptor and their use to treat inflammatory bowel diseases” (2017).)
